Data from patent US8785614B2, “Aberrantly methylated genes in pancreatic cancer” (The Johns Hopkins University, priority 2003, dated 2014).

Assays:
Test in all cases: Oligonucleotide microarray gene expression after TSA (1 μM, 24 h) vs mock
Assay type in all cases: cell-based, human
[1] = test system: AsPC1 pancreatic cancer cell line
Description: (§1) These include a large panel of novel targets for silencing by histone deacetylation including several known tumor suppressor genes or cell cycle-regulatory genes (ING1, p57KIP2, CHES1, CHFR, GADD45B, and others).

[2] = test system: Hs766T pancreatic cancer cell line
Description: as §1

[3] = test system: Panc1 pancreatic cancer cell line
Description: as §1

## CC(/C=C/C(=O)NO)=C\[C@@H](C)C(=O)c1ccc(N(C)C)cc1 [TSA, trichostatin A]
[1]; ADM, AsPC1
  Fold-change after TSA treatment: 7.6 fold
[1]; ANGPT1, AsPC1
  Fold-change after TSA treatment: −1.77 fold
[1]; AREG, AsPC1
  Fold-change after TSA treatment: 18.35 fold
[1]; ATF3, AsPC1
  Fold-change after TSA treatment: 8.73 fold
[1]; AsPC1
  transcripts with marked induction: 424 transcripts
  transcripts with marked induction, share of transcripts analyzed: 2.3%
[1]; BIK, AsPC1
  Fold-change after TSA treatment: 1.65 fold
[1]; CACNA1G, AsPC1
  Fold-change after TSA treatment: 9.95 fold
[1]; CAPN5, AsPC1
  Fold-change after TSA treatment: 1.73 fold
[1]; CDH8, AsPC1
  Fold-change after TSA treatment: 1.11 fold
[1]; CDKN1C, AsPC1
  Fold-change after TSA treatment: 10.62 fold
[1]; CGR11, AsPC1
  Fold-change after TSA treatment: −1.39 fold
[1]; CHES1, AsPC1
  Fold-change after TSA treatment: 1.87 fold
[1]; CHFR, AsPC1
  Fold-change after TSA treatment: −1.1 fold
[1]; CLDN15, AsPC1
  Fold-change after TSA treatment: −4.26 fold
[1]; EDR1, AsPC1
  Fold-change after TSA treatment: 4.56 fold
[1]; EGR4, AsPC1
  Fold-change after TSA treatment: 37.6 fold
[1]; EREG, AsPC1
  Fold-change after TSA treatment: 1.91 fold
[1]; GADD45B, AsPC1
  Fold-change after TSA treatment: 2.65 fold
[1]; GAGE1, AsPC1
  Fold-change after TSA treatment: 0.66 fold
[1]; GAGE2, AsPC1
  Fold-change after TSA treatment: −2.5 fold
[1]; GAGE3, AsPC1
  Fold-change after TSA treatment: −5.88 fold
[1]; GAGE4, AsPC1
  Fold-change after TSA treatment: −1.67 fold
[1]; GAGE6, AsPC1
  Fold-change after TSA treatment: −1.16 fold
[1]; GAGE7B, AsPC1
  Fold-change after TSA treatment: −4.88 fold
[1]; H1 historic family, member 2 (BC002649), AsPC1
  Fold-change after TSA treatment: 6.64 fold
[1]; HEP27, AsPC1
  Fold-change after TSA treatment: 413.37 fold
[1]; HMOX1, AsPC1
  Fold-change after TSA treatment: 1.73 fold
[1]; HPSE, AsPC1
  Fold-change after TSA treatment: 2.18 fold
[1]; ID2, AsPC1
  Fold-change after TSA treatment: 10.26 fold
[1]; ING1, AsPC1
  Fold-change after TSA treatment: 13.22 fold
[1]; KLK12, AsPC1
  Fold-change after TSA treatment: 7.63 fold
[1]; MAGE1, AsPC1
  Fold-change after TSA treatment: 1.05 fold
[1]; MBD1, AsPC1
  Fold-change after TSA treatment: 2.66 fold
[1]; MMP1, AsPC1
  Fold-change after TSA treatment: 9.05 fold
[1]; NGFR, AsPC1
  Fold-change after TSA treatment: 0.76 fold
[1]; NOTCH3, AsPC1
  Fold-change after TSA treatment: 7.93 fold
[1]; P-glycoprotein (mdr1), AsPC1
  Fold-change after TSA treatment: 1.08 fold
[1]; SPANXA1, AsPC1
  Fold-change after TSA treatment: −0.78 fold
[1]; STC1, AsPC1
  Fold-change after TSA treatment: 15.9 fold
[1]; UCPH, AsPC1
  Fold-change after TSA treatment: 5.48 fold
[1]; ULBP2, AsPC1
  Fold-change after TSA treatment: 73.47 fold
[1]; WNT4, AsPC1
  Fold-change after TSA treatment: 5.72 fold
[1]; candidate tumor suppressor gene 21 protein (AF040708), AsPC1
  Fold-change after TSA treatment: −1.47 fold
[1]; connective tissue growth factor (M92934), AsPC1
  Fold-change after TSA treatment: 17.38 fold
[1]; hemoglobin, alpha 1 (HBAI), AsPC1
  Fold-change after TSA treatment: 20.5 fold
[1]; interleukin 8, AsPC1
  Fold-change after TSA treatment: 44.67 fold
[1]; period homolog 1 (PERI), AsPC1
  Fold-change after TSA treatment: 20.29 fold
[1]; prostate differentiation factor (AF003934), AsPC1
  Fold-change after TSA treatment: 4.45 fold
[1]; protease inhibitor 12 (neuroserpin) (SERPINU), AsPC1
  Fold-change after TSA treatment: 8 fold
[1]; synovial sarcoma, X breakpoint 1 (BC001003), AsPC1
  Fold-change after TSA treatment: 1.74 fold
[1]; tissue factor pathway inhibitor-2 (L27624), AsPC1
  Fold-change after TSA treatment: 0.4 fold
[2]; ADM, Hs766T
  Fold-change after TSA treatment: 1.86 fold
[2]; ANGPT1, Hs766T
  Fold-change after TSA treatment: 6.72 fold
[2]; AREG, Hs766T
  Fold-change after TSA treatment: 2.02 fold
[2]; ATF3, Hs766T
  Fold-change after TSA treatment: 1.73 fold
[2]; BIK, Hs766T
  Fold-change after TSA treatment: 2.35 fold
[2]; CACNA1G, Hs766T
  Fold-change after TSA treatment: 2.72 fold
[2]; CAPN5, Hs766T
  Fold-change after TSA treatment: 1.06 fold
[2]; CDH8, Hs766T
  Fold-change after TSA treatment: −1.11 fold
[2]; CDKN1C, Hs766T
  Fold-change after TSA treatment: 6.57 fold
[2]; CGR11, Hs766T
  Fold-change after TSA treatment: 1.82 fold
[2]; CHES1, Hs766T
  Fold-change after TSA treatment: −1.11 fold
[2]; CHFR, Hs766T
  Fold-change after TSA treatment: 8 fold
[2]; CLDN15, Hs766T
  Fold-change after TSA treatment: −1.81 fold
[2]; EDR1, Hs766T
  Fold-change after TSA treatment: −1.26 fold
[2]; EGR4, Hs766T
  Fold-change after TSA treatment: 6.49 fold
[2]; EREG, Hs766T
  Fold-change after TSA treatment: 7.43 fold
[2]; GADD45B, Hs766T
  Fold-change after TSA treatment: 2.01 fold
[2]; GAGE1, Hs766T
  Fold-change after TSA treatment: 14.57 fold
[2]; GAGE2, Hs766T
  Fold-change after TSA treatment: 432.64 fold
[2]; GAGE3, Hs766T
  Fold-change after TSA treatment: 184.93 fold
[2]; GAGE4, Hs766T
  Fold-change after TSA treatment: 234.36 fold
[2]; GAGE6, Hs766T
  Fold-change after TSA treatment: 237.45 fold
[2]; GAGE7B, Hs766T
  Fold-change after TSA treatment: 331.97 fold
[2]; H1 historic family, member 2 (BC002649), Hs766T
  Fold-change after TSA treatment: 5.8 fold
[2]; HEP27, Hs766T
  Fold-change after TSA treatment: 1631 fold
[2]; HMOX1, Hs766T
  Fold-change after TSA treatment: 2.56 fold
[2]; HPSE, Hs766T
  Fold-change after TSA treatment: −1.12 fold
[2]; Hs766T
  transcripts with marked induction: 349 transcripts
  transcripts with marked induction, share of transcripts analyzed: 1.9%
[2]; ID2, Hs766T
  Fold-change after TSA treatment: 5 fold
[2]; ING1, Hs766T
  Fold-change after TSA treatment: 11.83 fold
[2]; KLK12, Hs766T
  Fold-change after TSA treatment: 1.54 fold
[2]; MAGE1, Hs766T
  Fold-change after TSA treatment: 0.49 fold
[2]; MBD1, Hs766T
  Fold-change after TSA treatment: 7.94 fold
[2]; MMP1, Hs766T
  Fold-change after TSA treatment: 1.63 fold
[2]; NGFR, Hs766T
  Fold-change after TSA treatment: 4.11 fold
[2]; NOTCH3, Hs766T
  Fold-change after TSA treatment: 2.06 fold
[2]; P-glycoprotein (mdr1), Hs766T
  Fold-change after TSA treatment: 5.74 fold
[2]; SPANXA1, Hs766T
  Fold-change after TSA treatment: 15.92 fold
[2]; STC1, Hs766T
  Fold-change after TSA treatment: −1.31 fold
[2]; UCPH, Hs766T
  Fold-change after TSA treatment: −1.45 fold
[2]; ULBP2, Hs766T
  Fold-change after TSA treatment: 3.47 fold
[2]; WNT4, Hs766T
  Fold-change after TSA treatment: 0.81 fold
[2]; candidate tumor suppressor gene 21 protein (AF040708), Hs766T
  Fold-change after TSA treatment: 5.14 fold
[2]; connective tissue growth factor (M92934), Hs766T
  Fold-change after TSA treatment: 43 fold
[2]; hemoglobin, alpha 1 (HBAI), Hs766T
  Fold-change after TSA treatment: 1.55 fold
[2]; interleukin 8, Hs766T
  Fold-change after TSA treatment: −1.42 fold
[2]; period homolog 1 (PERI), Hs766T
  Fold-change after TSA treatment: 9.7 fold
[2]; prostate differentiation factor (AF003934), Hs766T
  Fold-change after TSA treatment: 3.17 fold
[2]; protease inhibitor 12 (neuroserpin) (SERPINU), Hs766T
  Fold-change after TSA treatment: 1.95 fold
[2]; synovial sarcoma, X breakpoint 1 (BC001003), Hs766T
  Fold-change after TSA treatment: 38.74 fold
[2]; tissue factor pathway inhibitor-2 (L27624), Hs766T
  Fold-change after TSA treatment: 120.09 fold
[3]; ADM, Panc1
  Fold-change after TSA treatment: 3.22 fold
[3]; ANGPT1, Panc1
  Fold-change after TSA treatment: −1.13 fold
[3]; AREG, Panc1
  Fold-change after TSA treatment: 4.2 fold
[3]; ATF3, Panc1
  Fold-change after TSA treatment: 2.74 fold
[3]; BIK, Panc1
  Fold-change after TSA treatment: 5.02 fold
[3]; CACNA1G, Panc1
  Fold-change after TSA treatment: 10.14 fold
[3]; CAPN5, Panc1
  Fold-change after TSA treatment: 5.41 fold
[3]; CDH8, Panc1
  Fold-change after TSA treatment: 6.85 fold
[3]; CDKN1C, Panc1
  Fold-change after TSA treatment: 6.26 fold
[3]; CGR11, Panc1
  Fold-change after TSA treatment: 11.66 fold
[3]; CHES1, Panc1
  Fold-change after TSA treatment: 9.31 fold
[3]; CHFR, Panc1
  Fold-change after TSA treatment: −1.33 fold
[3]; CLDN15, Panc1
  Fold-change after TSA treatment: 8.69 fold
[3]; EDR1, Panc1
  Fold-change after TSA treatment: −2.06 fold
[3]; EGR4, Panc1
  Fold-change after TSA treatment: 6.44 fold
[3]; EREG, Panc1
  Fold-change after TSA treatment: −1.37 fold
[3]; GADD45B, Panc1
  Fold-change after TSA treatment: −1.09 fold
[3]; GAGE1, Panc1
  Fold-change after TSA treatment: 0.63 fold
[3]; GAGE2, Panc1
  Fold-change after TSA treatment: 1.4 fold
[3]; GAGE3, Panc1
  Fold-change after TSA treatment: 1.07 fold
[3]; GAGE4, Panc1
  Fold-change after TSA treatment: 2.29 fold
[3]; GAGE6, Panc1
  Fold-change after TSA treatment: 1.62 fold
[3]; GAGE7B, Panc1
  Fold-change after TSA treatment: 3.56 fold
[3]; HEP27, Panc1
  Fold-change after TSA treatment: 31.64 fold
[3]; HMOX1, Panc1
  Fold-change after TSA treatment: 1.21 fold
[3]; HPSE, Panc1
  Fold-change after TSA treatment: 3.03 fold
[3]; ID2, Panc1
  Fold-change after TSA treatment: 21.22 fold
[3]; ING1, Panc1
  Fold-change after TSA treatment: 1.5 fold
[3]; KLK12, Panc1
  Fold-change after TSA treatment: 2.13 fold
[3]; MAGE1, Panc1
  Fold-change after TSA treatment: 15.48 fold
[3]; MBD1, Panc1
  Fold-change after TSA treatment: −1.82 fold
[3]; MMP1, Panc1
  Fold-change after TSA treatment: −2.63 fold
[3]; NGFR, Panc1
  Fold-change after TSA treatment: 30.7 fold
[3]; NOTCH3, Panc1
  Fold-change after TSA treatment: 3.9 fold
[3]; P-glycoprotein (mdr1), Panc1
  Fold-change after TSA treatment: 3.69 fold
[3]; Panc1
  transcripts with marked induction: 459 transcripts
[3]; Panc1 (printed Panel)
  transcripts with marked induction, share of transcripts analyzed: 2.5%
[3]; SPANXA1, Panc1
  Fold-change after TSA treatment: 6.45 fold
[3]; STC1, Panc1
  Fold-change after TSA treatment: 5.63 fold
[3]; UCPH, Panc1
  Fold-change after TSA treatment: 2.05 fold
[3]; ULBP2, Panc1
  Fold-change after TSA treatment: 18.25 fold
[3]; WNT4, Panc1
  Fold-change after TSA treatment: 5.13 fold
[3]; candidate tumor suppressor gene 21 protein (AF040708), Panc1
  Fold-change after TSA treatment: 1.01 fold
[3]; connective tissue growth factor (M92934), Panc1
  Fold-change after TSA treatment: 7.69 fold
[3]; hemoglobin, alpha 1 (HBAI), Panc1
  Fold-change after TSA treatment: 4.55 fold
[3]; interleukin 8, Panc1
  Fold-change after TSA treatment: 3.01 fold
[3]; member 2 (BC002649), Panc1
  Fold-change after TSA treatment: 5.04 fold
[3]; period homolog 1 (PERI), Panc1
  Fold-change after TSA treatment: −3.83 fold
[3]; prostate differentiation factor (AF003934), Panc1
  Fold-change after TSA treatment: 4.05 fold
[3]; protease inhibitor 12 (neuroserpin) (SERPINU), Panc1
  Fold-change after TSA treatment: 11.7 fold
[3]; synovial sarcoma, X breakpoint 1 (BC001003), Panc1
  Fold-change after TSA treatment: 2.73 fold
[3]; tissue factor pathway inhibitor-2 (L27624), Panc1
  Fold-change after TSA treatment: 34.65 fold
